According to patent US5847123A, “Imide derivatives for inhibiting the production of interleukin-1β and the production of tumor necrosis factor α” (Nisshin Flour Milling Co., Ltd., priority 1996, dated 1998):

Columns and labels:
IL-1β production = test: Inhibitory activity of the IL-1β production in PMA/polyinosic acid-stimulated THP-1 cells (enzyme immunoassay); type: cell-based, human (THP-1 cells); conditions: Homo sapiens, PMA 2 μg/ml and polyinosic acid 200 μg/ml, 22 hours
Experimental: (§1) Determination for the inhibitory activity of the IL-1β production and the inhibitory activity of the TNFα production
(§2) The THP-1 cells, which is the monocyte-established cell line derived from human peripheral blood (ATCC TIB202), were incubated at 37° C. in a 5% CO2 incubator in RPMI 1640 medium (available from Bio-Whittaker Co., Ltd.) containing 10% (v/v) of fetal bovine serum, 2 mM of glutamine, 50 μM of 2-mercaptoethanol, 60 μg/ml of penicillin and 100 μg/ml of streptomycin. The THP-1 cells maintained as described above were centrifuged at 1200 rpm at room temperature for 3 minutes to recover the cells in a 50 ml conical tube. The cell pellets thus obtained were resuspended in RPMI 1640 medium containing 2% (v/v) of fetal bovine serum and the glutamine, 2-mercaptoethanol and antibiotics as described above so as to provide a final THP-1 cell concentration of 2×10^6 cells/ml.
(§3) The cell resuspension having the above concentration was dispensed in 0.5 ml portions to a 24-well plate for cell culture. Then, 2.5 μl each of the solutions of the present imide derivatives dissolved in DMSO was added to each well. The plate was then incubated at 37° C. in a 5% CO2 incubator for one hour. Then, 12-o-tetradecanoylphorbol-13-acetate (hereinafter referred to as PMA) and polyinosic acid were added to each well so as to provide the final concentrations of 2 μg/ml and 200 μg/ml, respectively. The plate was further incubated at 37° C. in a 5% CO2 incubator for 22 hours and the IL-1β and TNFα produced in the cultured broth were assayed. The assay for IL-1β was carried out by means of the enzyme immunoassay kit available from Cayman Chemical Co., Ltd., while the assay of TNFα was done by means of the ELIZA kit available from Genzyme Co., Ltd.
(§4) The inhibitory activity was expressed in terms of IC50 values, wherein the produced amount of IL-1β and the produced amount of TNFα when no imide derivative was added are defined as 100, respectively, and the concentration of each imide derivative of the present invention to inhibit the IL-1β production and TNFα production is defined as IC50, respectively.

TNFα production [1] = test: Inhibitory activity of the TNFα production in PMA/polyinosic acid-stimulated THP-1 cells (ELIZA kit); type: cell-based, human (THP-1 cells); conditions: Homo sapiens, PMA 2 μg/ml and polyinosic acid 200 μg/ml, 22 hours
Experimental: as §1, §2, §3, §4

[2] = Determination for cytotoxicity in THP-1 cells (Alamar Blue); type: cell-based; conditions: human, 24 hours incubation, read-out: LD50 (lethal dose for 50% in the THP-1 cells)
Experimental: Determination for Cytotoxicity The THP-1 cells, which is the monocyte-established cell line derived from human peripheral blood (ATCC TIB202), were incubated at 37° C. in a 5% CO2 incubator in RPMI 1640 medium (available from Bio-Whittaker Co., Ltd.) containing 10% (v/v) of fetal bovine serum, 2 mM of glutamine, 50 μM of 2-mercaptoethanol, 60 μg/ml of penicillin and 100 μg/ml of streptomycin. The THP-1 cells maintained as described above were centrifuged at 1200 rpm at room temperature for 3 minutes to recover the cells in a 50 ml conical tube. The cell pellets thus obtained were suspended in RPMI 1640 medium containing 2% (v/v) of fetal bovine serum, 2 mM of glutamine, 50 μM of 2-mercaptoethanol, 60 μg/ml of penicillin and 100 μg/ml of streptomycin so as to provide the final cell concentration of 1×10^6 cells/ml. The cell suspension obtained as above was dispensed in 1 ml portions to a 24-well plate for cell culture. Then, 5 μl each of the solutions of the present imide derivatives dissolved in DMSO was added to each well. The plate was then incubated at 37° C. in a 5% CO2 incubator for 24 hours. After incubation, 100 μl of Alamar Blue (available from Biosource Co., Ltd.) was added to each well and then the plate was further incubated at 37° C. in a 5% CO2 incubator for 3 hours. Thereafter, a supernatant was recovered and determined for a difference in absorbances at 570 nm and 600 nm. Cytotoxicity was then evaluated in accordance with the survival rates determined from the differences in absorbances. More specifically, the lethal dose for 50% (LD50) in the THP-1 cells were calculated.

TNFα production [3] = test: Inhibitory activity of the TNFα production in LPS-treated mice (blood TNFα level); type: in vivo, DBA/2 strain mice; conditions: for Inhibitory rate (%) of TNFα production: 10 mg/kg i.p. twice (before and after 30 minutes from LPS 5.6 mg/kg i.v.), blood TNFα after 2 hours; for inhibitory activity on the TNFα production in mice (in words): 10 mg/kg i.p., LPS-treated DBA/2 mice
Experimental: Determination for the inhibitory activity of the TNFα production To the DBA/2 strain mice previously given with LPS 5.6 mg/kg, i.v. were intraperitoneally administered twice before and after 30 minutes from the LPS administration the present imide derivatives selected from Compound 1, Compound 3, Compound 7, Compound 8, Compound 9 and Compound 26. After 2 hours from the LPD administration, the blood TNFα level was determined to investigate the inhibitory activity of the present imide derivatives on the TNFα production. More specifically, the blood TNFα level was determined when the present imide derivative was given at a dose of 10 mg/kg to calculate the inhibitory rate of the TNFα production.

Structure (SMILES) | IC50 (IL-1β production) [µM] | IC50 (TNFα production [1]) [µM] | CC50 at 24 h [2] [µM] | Inhibitory rate (%) of TNFα production (TNFα production [3]) [%] | inhibitory activity on the TNFα production in mice (in words) (TNFα production [3])
O=C(C#Cc1ccccc1)N1CCCCCC1=O [Compound 8] | 6 | 2.1 | > 200 | 31 | significant inhibitory activity
O=C(C#Cc1ccc(Cl)cc1)N1CCCC1=O [Compound 2] | 5.5 | 1.6 | – | – | –
O=C(C#Cc1ccc(F)cc1)N1CCOC1=O [Compound 6] | 2.4 | 1.7 | > 100 | – | –
CCN(C(=O)C#Cc1ccccc1)C(=O)c1ccccc1 [Compound 12] | 9.6 | 5.4 | – | – | –
O=C(C#Cc1ccc(F)cc1)N1CCCC1=O [Compound 3] | 3.8 | 1.3 | > 100 | 37 | significant inhibitory activity
O=C(C#Cc1ccccc1)N1CCCC1=O [Compound 1] | 1.4 | 1 | 70 | 22 | significant inhibitory activity
N#Cc1ccc(C#CC(=O)N2CCOC2=O)cc1 [Compound 5] | 2.6 | 2.1 | – | – | –
O=C(C#Cc1ccccc1)N(Cc1ccc(F)cc1)C(=O)c1ccccc1 [Compound 13] | 15 | 15 | – | – | –
CC(=O)N(C(=O)C#Cc1ccccc1)c1ccc2c(c1)OCO2 [Compound 15] | 6.3 | 1.7 | – | – | –
O=C(C#Cc1ccccc1)N1CCOC1=O [Compound 7] | 1.1 | 1.2 | > 200 | 22 | significant inhibitory activity
CC1CCC(=O)N1C(=O)C#Cc1ccccc1 (stereo not shown) [Compound 9] | 2.8 | 0.9 | 110 | 29 | significant inhibitory activity
CC(=O)NC(=O)C#Cc1ccccc1 [Compound 14] | 4.4 | 1.8 | – | – | –
N#Cc1ccc(C#CC(=O)N2CCCC2=O)cc1 [Compound 4] | 7 | 1.7 | – | – | –
O=C(C#Cc1ccccc1)N1CCNC1=O [Compound 11] | 1.8 | 0.5 | – | – | –
O=C(C#Cc1ccccc1)N1CCN(C(=O)C#Cc2ccccc2)C1=O [Compound 10] | 6.7 | 0.5 | – | – | –

Continued, in another order:

IC50 (IL-1β production) [µM] | IC50 (TNFα production [1]) [µM] | Structure (SMILES) | CC50 at 24 h [2] [µM] | Inhibitory rate (%) of TNFα production (TNFα production [3]) [%] | inhibitory activity on the TNFα production in mice (in words) (TNFα production [3])
10 | 4.4 | CC(=O)N(Cc1ccco1)C(=O)C#Cc1ccccc1 [Compound 24] | – | – | –
3.1 | 1.8 | COc1ccccc1CN(C(C)=O)C(=O)C#Cc1ccccc1 [Compound 17] | – | – | –
8.8 | 1.7 | CC(=O)N(C(=O)C#Cc1ccccc1)c1ccncc1 [Compound 26] | – | 37 | significant inhibitory activity
> 30 | 4.8 | CCN(C(=O)C#Cc1ccccc1)C(=O)c1cccs1 [Compound 25] | – | – | –
12 | 14 | CC(=O)N(C(=O)C#Cc1ccccc1)c1ccccn1 [Compound 22] | – | – | –
1.3 | 1.9 | Cc1ccccc1N(C(=O)C#Cc1ccccc1)C(=O)CCc1ccccc1 [Compound 20] | – | – | –
8.8 | 1.7 | CC(=O)N(CCc1ccccc1)C(=O)C#Cc1ccccc1 [Compound 28] | – | – | –
> 30 | > 30 | CCN(C(=O)C#Cc1ccccc1)C(=O)COC [Compound 29] | – | – | –
2 | 1.3 | CCN(C(=O)C#Cc1ccccc1)C(=O)Cc1ccccc1Cl [Compound 19] | – | – | –
7 | 0.6 | COC(=O)C1CCC(=O)N1C(=O)C#Cc1ccccc1 (racemic) [Compound 21] | – | – | –
14 | 3 | O=C(C#Cc1ccccc1)N(C(=O)c1ccccc1)c1ccc(F)cc1F [Compound 27] | – | – | –
6.3 | 3.7 | CC(=O)N(CCN(C)C)C(=O)C#Cc1ccccc1 [Compound 30] | – | – | –
5.7 | 4.4 | CCN(C(C)=O)C(=O)C#Cc1ccccc1 [Compound 18] | – | – | –
13 | 14 | CCCCC(=O)N(CCCC)C(=O)C#Cc1ccccc1 [Compound 16] | – | – | –
